Values quoted from earlier work, collected in patent publication US8044033B2, “Fluorocytidine derivatives and COX-2 inhibitors for the treatment of cancer” (The Board of Regents of the University of Texas System, priority 2006, dated 2011).
Read-outs that look alike come from different tables or passages of the source.

Experiments:
[1] = system: metastatic colorectal cancer
[2] = First-line therapy, no radiation, cross-study comparison
[3] = first-line treatment of metastatic colorectal cancer

CCCCCOC(=O)Nc1nc(=O)n([C@@H]2O[C@H](C)[C@@H](O)[C@H]2O)cc1F [Capecitabine, capecitabine]
incidence of hand-foot syndrome (HFS) (1250 mg/m2/day bid for two weeks every 3 weeks): 54%
incidence of grade 2/3 HFS (earlier study, capecitabine dose 1000 mg/m2/d bid (Lin et al., 2002)): 34.2%
Complete response (%) [1, 2]: 1%
Median OS (months) [1, 2]: 12.4-13.2 months
Median OS (months) ([1]; Second-line therapy, no radiation, cross-study comparison): 12.7 months
overall survival [1, 3]: 12 months
response rate [1, 3]: 25%
time to tumor progression in half of the patients ([1]; monotherapy): 2-4 months
